Measured values published in patent US20250011368A1, “DLL3 TARGETING PEPTIDES AND CONSTRUCTS THEREOF” (MARIANA ONCOLOGY INC., priority 2023, published 2025).
Bridge positions count the residues as written; N and C are the ends. Square brackets hold non-standard residues; d marks the D form. Peptide text beside a SMILES is read from it. * marks the point of attachment. DOTA = O=C(O)CN1CCN(CC(=O)O)CCN(CC(=O)*)CCN(CC(=O)O)CC1; Phe(4-CF3) = N[C@@H](Cc1ccc(C(F)(F)F)cc1)C(=O)O; Trp(5-F) = N[C@@H](Cc1c[nH]c2ccc(F)cc12)C(=O)O; Trp(7-aza) = N[C@@H](Cc1c[nH]c2ncccc12)C(=O)O; Pro(trans-4-F) = O=C(O)[C@@H]1C[C@@H](F)CN1; 2Nal = N[C@@H](Cc1ccc2ccccc2c1)C(=O)O; Nva(3-Et) = CCC(CC)[C@H](N)C(=O)O; 4Pal = N[C@@H](Cc1ccncc1)C(=O)O

Columns and labels:
SHP-77 tumors = test: Ex vivo biodistribution of radiolabeled peptides in nude mice bearing SHP-77 tumors; details: [177Lu]Lu labelling, nude mice bearing SHP-77 tumors (n = 3), 24 hours post-injection
Method in brief: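 Nude mice bearing SHP-77 xenografts (200-400 mm^3) or tumor-naïve mice (5-7 weeks) received an intravenous tail-vein bolus of [^177Lu]Lu-peptide and were euthanized at pre-set time points. Tissues were weighed and gamma-counted, with counts decay-corrected to injection time. Values are % IA/g per tissue from the injected activity of each mouse.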

human DLL3 = molecular target: T1, human DLL3 (Homo sapiens, UniProt Q9NYJ7); test: Affinity determination by Surface Plasmon Resonance (SPR); assay type: binding; details: 25° C., biotinylated human DLL3 immobilized on streptavidin sensor chip, 1:1 binding model; read-out: SPR KD
T1 sequence (Q9NYJ7 27-618): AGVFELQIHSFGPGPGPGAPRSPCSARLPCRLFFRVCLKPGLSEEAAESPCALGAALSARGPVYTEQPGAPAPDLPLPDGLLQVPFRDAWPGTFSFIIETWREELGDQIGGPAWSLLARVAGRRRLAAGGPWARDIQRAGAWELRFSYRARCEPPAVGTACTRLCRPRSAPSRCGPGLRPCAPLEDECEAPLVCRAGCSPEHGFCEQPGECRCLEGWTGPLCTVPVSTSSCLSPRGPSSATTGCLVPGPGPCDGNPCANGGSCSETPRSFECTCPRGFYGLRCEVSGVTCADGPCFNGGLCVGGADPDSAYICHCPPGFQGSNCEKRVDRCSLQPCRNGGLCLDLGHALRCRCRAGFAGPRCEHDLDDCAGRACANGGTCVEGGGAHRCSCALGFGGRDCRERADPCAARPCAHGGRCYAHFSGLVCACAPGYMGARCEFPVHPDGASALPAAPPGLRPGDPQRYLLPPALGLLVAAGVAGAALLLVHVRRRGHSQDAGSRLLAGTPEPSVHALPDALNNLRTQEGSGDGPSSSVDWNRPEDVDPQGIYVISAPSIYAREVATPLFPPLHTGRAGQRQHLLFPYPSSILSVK
Method in brief: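 Kinetic and affinity constants were derived by fitting sensorgrams to a 1:1 binding model. Graded compound concentrations flowed at 100 μL/minute in 20 mM phosphate running buffer with 2% DMSO over streptavidin-immobilized biotinylated human DLL3, reference-subtracted.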

CT26.DLL3 cells [1] = test: Cell binding (total uptake) of [177Lu]Lu-test peptide, CT26.DLL3 cells; assay type: cell-based; details: 1 hour at 37° C.
Method in brief: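 CT26.DLL3 cells (5–25 million/condition) in 1% PBSA incubated 1 h at 37°C with [177Lu]Lu-labelled peptide (0.8 μCi in 300 μL), radiolabelled at pH ~5, 80°C. Cells pelleted, washed twice with cold PBS+1% BSA; bound and unbound fractions gamma-counted, uptake binned as ≤25%, 25–50%, >50%.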

SHP-77 cells = test: Cell binding (total uptake) of [177Lu]Lu-test peptide, SHP-77 cells; assay type: cell-based; details: SHP77 cells, 1 hour at 37° C., bound fraction
Method: (§1) [^177Lu]LuCl3 was received from venders in HCl solution. For every mCi of [^177Lu]LuCl3 added to the reaction vial (1.5 mL Eppendorf vial), ammonium acetate buffer (0.2 M, pH 4.9, 100 μL, containing 1% w/v ascorbic acid and 6% v/v ethanol) and peptide conjugate (1 nmol). A peptide conjugate of the present disclosure is also referred to herein as a “chelator-peptide”. The pH of the solution was determined to be approximately 5 by using pH strips. The reaction vial was incubated at 80° C., 700 RPM for 17-20 minutes. A sample from the reaction was analyzed by RP-HPLC using an Agilent Infinity II 1260 HPLC to determine reaction completion and radiochemical purity of [^177Lu]Lu-chelator-peptide. HPLC conditions: Waters XBridge BEH C18 Column, 130 Å, 3.5 um, 4.6 mm×250 mm; mobile phase: Solvent A=water (with 0.1% formic acid), solvent B=acetonitrile (with 0.1% formic acid). Gradients: 25-45% B in 10 minutes, 45-65% B in 12 minutes, 65-90% in 6 minutes at a flow rate of 0.5 mL/minute. Required amounts of the product was formulated in 1% PBSA for cell studies.
(§2) The study was conducted using SHP-77, CT26.WT, and CT26.DLL3 cells (Table 7) Adherent cell studies: The cells were cultured in appropriate culture media (20 mL) in tissue culture treated T150 flasks at 37° C. and 5% CO2. Adherent cells were detached (60-70% confluent) using 5 mL Versene at 37° C. for 3 minutes. After confirming the viability using countess and count of detached cells using Trypan blue, the cells were centrifuged at 4° C. for 5 minutes (1,000 rpm). The cell pellet obtained was washed once with PBS and resuspended in 1% PBSA to obtain the desired cell concentration (5-25 million cells/mL).
Suspension cell studies: The cells were cultured in appropriate culture media (20 mL) in tissue culture treated T150 flasks at 37° C. and 5% CO2. After confirming the viability and count of detached cells using Trypan blue, the cells were centrifuged at 4° C. for 5 minutes (1,000 rpm). The cell pellet obtained was washed once with PBS and resuspended in 1% PBSA to obtain the desired cell concentration (5-25 million cells/mL).
(§3) Cell numbers used for the assay were in the range of 5 million cells/condition −25 million cells/condition.
(§4) Total uptake: Cells were incubated with 300 μL (0.8 μCi) of the incubation buffer (containing radiolabeled peptide [^177Lu] Lu-test peptide) for 1 hour at 37° C. (Table 8). Post incubation, the cells were pelleted and washed 2 times using cold PBS+1% BSA. The supernatant and washes were combined and counted together as “unbound fraction” in a gamma counter. The cells were then resuspended in 300 μL of 1% PBS+1% BSA and counted in the gamma counter as “bound fraction”.
(§5) In these Tables, “A” represents %≤25; “B” represents 25<%≤50; “C” represents %>50.

CT26.DLL3 cells [2] = test: Internalization (out of bound fraction) of [177Lu]Lu-test peptide, CT26.DLL3 cells; assay type: cell-based; details: 1 hour at 37° C., glycine pH 2.5 wash
Method: as §1, §2, §3, §4
Internalization: The resuspended cells in 300 μl of 1% PBSA and counted in the gamma counter as “bound fraction” were collected in 1.5 mL Eppendorf tube and pelleted. The pelleted cells were incubated with 300 μl of 50 mM Glycine pH=2.5 for 3 minutes and then pelleted discarding the supernatant. This process was repeated one more time. The pelleted cells were washed with 300 μl of cold 1% PBSA and then resuspended in 300 μl 0.3M NaOH. This was counted in the gamma counter as “internalized fraction”.
as §5

[3] = molecular target: T2, Biotinylated human DLL3 (Delta Like Canonical Notch Ligand 3) (human, UniProt Q9NYJ7 27-492, limits assumed, biotinylated (site not stated)); test: SPR; letter grade, key in paragraph 614
T2 construct: also called Delta-like protein 3; biotinylated target ligand human DLL3
T2 sequence: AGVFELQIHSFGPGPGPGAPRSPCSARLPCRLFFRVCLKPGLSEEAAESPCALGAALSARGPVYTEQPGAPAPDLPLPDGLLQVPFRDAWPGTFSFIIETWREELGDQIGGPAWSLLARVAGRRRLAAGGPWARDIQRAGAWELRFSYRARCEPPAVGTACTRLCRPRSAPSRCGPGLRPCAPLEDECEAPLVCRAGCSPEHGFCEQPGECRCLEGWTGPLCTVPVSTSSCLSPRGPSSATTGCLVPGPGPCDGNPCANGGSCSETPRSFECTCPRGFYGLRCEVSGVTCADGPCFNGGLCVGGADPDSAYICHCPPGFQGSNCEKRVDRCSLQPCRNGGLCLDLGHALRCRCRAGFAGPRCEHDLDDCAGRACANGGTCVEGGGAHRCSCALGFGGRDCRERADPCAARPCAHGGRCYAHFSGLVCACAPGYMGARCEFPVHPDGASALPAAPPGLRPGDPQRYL
Method: Biotinylated target ligand human DLL3 was immobilized on a streptavidin sensor chip. A reference surface was set up for nonspecific binding and refractive index changes. For analysis of the kinetics of interactions, varying concentrations of samples were injected at a flow rate of 100 μL/minute using running buffer containing 20 mM phosphate buffer with 2.7 mM KCl, 137 mM NaCl, 0.05% Surfactant P20 and 2% DMSO. Sensorgram curves were fitted with 1:1 binding model, and affinity and kinetic parameters were obtained using Biacore Insight evaluation 4.0. software.

## CC[C@H](C)[C@H](NC(=O)[C@@H](NC(=O)[C@H](Cc1c[nH]c2ccccc12)NC(C)=O)[C@@H](C)O)C(=O)N[C@H]1CSSC[C@@H](C(=O)N[C@@H](Cc2c[nH]c3ccccc23)C(=O)N2CCC[C@H]2C(=O)N[C@H](CCCCNC(=O)CN2CCN(CC(=O)O)CCN(CC(=O)O)CCN(CC(=O)O)CC2)C(N)=O)NC(=O)[C@H](CC(=O)O)NC(=O)[C@H](Cc2cnc[nH]2)NC(=O)[C@H](Cc2c[nH]c3ccccc23)NC(=O)[C@H](CC(N)=O)NC(=O)[C@H](CC(N)=O)NC1=O [compound 23, Ac-W-T-I-C(3)-N-N-W-H-D-C(3)-W-P-[D-Lys(DOTA)]-NH2] (Ac-WTICNNWHDCWP[dK](DOTA)-NH2; disulfide 4-10)
SHP-77 tumors
  kidney uptake (% IA/g): D (% IA/g > 10 in kidney)
  tumor uptake (% IA/g): A (0 < % IA/g ≤ 5 in tumor)
Human DLL3
  Kd: 1 to 10 nM
CT26.DLL3 cells [1]
  % Binding: A (%≤25)
SHP-77 cells
  % Binding: A (%≤25)

## CC[C@H](C)[C@H](NC(=O)[C@@H](NC(=O)[C@H](Cc1c[nH]c2ccccc12)NC(C)=O)[C@@H](C)O)C(=O)N[C@H]1CSSC[C@@H](C(=O)N[C@@H](Cc2c[nH]c3ccccc23)C(=O)N2CCC[C@H]2C(=O)N[C@H](CCCCNC(=O)CN2CCN(CC(=O)O)CCN(CC(=O)O)CCN(CC(=O)O)CC2)C(N)=O)NC(=O)[C@H](CC(=O)O)NC(=O)[C@H](Cc2cnc[nH]2)NC(=O)[C@H](Cc2ccc3ccccc3c2)NC(=O)[C@H](CC(N)=O)NC(=O)[C@H](CC(N)=O)NC1=O [compound 75, Ac-W-T-I-C(3)-N-N-(2Nal)-H-D-C(3)-W-P-[D-Lys(DOTA)]-NH2] (Ac-WTICNN[2Nal]HDCWP[dK](DOTA)-NH2; disulfide 4-10)
SHP-77 tumors
  kidney uptake (% IA/g): D (% IA/g > 10 in kidney)
  tumor uptake (% IA/g): A (0 < % IA/g ≤ 5 in tumor)
Human DLL3
  Kd: 1 to 10 nM
CT26.DLL3 cells [1]
  % Binding: B (25<%≤50)
SHP-77 cells
  % Binding: A (%≤25)
CT26.DLL3 cells [2]
  % Internalization (out of bound fraction): B (25<%≤50)

## CCC(CC)[C@H](NC(=O)[C@@H](NC(=O)[C@H](Cc1c[nH]c2ccc(F)cc12)NC(C)=O)[C@@H](C)O)C(=O)N[C@H]1CSSC[C@@H](C(=O)N[C@@H](Cc2c[nH]c3ncccc23)C(=O)N2C[C@H](F)C[C@H]2C(=O)N[C@H](CCCCNC(=O)CN2CCN(CC(=O)O)CCN(CC(=O)O)CCN(CC(=O)O)CC2)C(N)=O)NC(=O)[C@H](CC(=O)O)NC(=O)[C@H](Cc2cnc[nH]2)NC(=O)[C@H](Cc2ccc(C(F)(F)F)cc2)NC(=O)[C@H](CC(N)=O)NC(=O)[C@H](CC(N)=O)NC1=O [compound 146, Ac-(5Fluoro-W)-T-(Env)-C(3)-N-N-(4CF3-F)-H-D-C(3)-(7Aza-W)-(trans4Fluoro-P)-[D-Lys(DOTA)]-NH2] (Ac-[Trp(5-F)]T[Nva(3-Et)]CNN[Phe(4-CF3)]HDC[Trp(7-aza)][Pro(trans-4-F)][dK](DOTA)-NH2; disulfide 4-10)
SHP-77 tumors
  kidney uptake (% IA/g): C (0 < % IA/g ≤ 10 in kidney)
  tumor uptake (% IA/g): A (0 < % IA/g ≤ 5 in tumor)
Human DLL3
  Kd: < 1 nM
SHP-77 cells
  % Binding: A (%≤25)

## Ac-WTICNN[2Nal][4Pal]DCWP[dK](DOTA)-NH2 (disulfide 4-10; also: natLu in the DOTA chelator, * = [natLu]Lu-labelled peptide) [[natLu]Lu-labelled Cpd No. 367]
[3]
  Kd: ≤ 1 nM

B1: Cpd No. 367 (peptide)
peptide: Ac-WTICNN[2Nal][4Pal]DCWP[dK](DOTA)-NH2
modifications: disulfide 4-10
SMILES: CC[C@H](C)[C@H](NC(=O)[C@@H](NC(=O)[C@H](Cc1c[nH]c2ccccc12)NC(C)=O)[C@@H](C)O)C(=O)N[C@H]1CSSC[C@@H](C(=O)N[C@@H](Cc2c[nH]c3ccccc23)C(=O)N2CCC[C@H]2C(=O)N[C@H](CCCCNC(=O)CN2CCN(CC(=O)O)CCN(CC(=O)O)CCN(CC(=O)O)CC2)C(N)=O)NC(=O)[C@H](CC(=O)O)NC(=O)[C@H](Cc2ccncc2)NC(=O)[C@H](Cc2ccc3ccccc3c2)NC(=O)[C@H](CC(N)=O)NC(=O)[C@H](CC(N)=O)NC1=O
[3]
  Kd: ≤ 1 nM

B2: Cpd No. 252 (peptide)
peptide: Ac-WTICNN[2Nal]HDCWP[dK]-NH2
modifications: disulfide 4-10; not fully specified (residue 13); printed as Ac-W-T-I-C(3)-N-N-(2Nal)-H-D-C(3)-W-P-{D-Lys[PEG8-D-Lys(DOTA)-PEG12-COCH2Ph-4Br]}-NH2, disulfide C(3)-C(3)
[3]
  Kd: ≤ 1 nM
